Reference: ChEMBL document CHEMBL1137117, “Cinnamic acid esters as potent inhibitors of fungal 17beta-hydroxysteroid dehydrogenase--a model enzyme of the short-chain dehydrogenase/reductase superfamily” (Bioorg Med Chem Lett, 2004)

How the values were obtained:
Parameters in all cases: species or system Curvularia lunata
[1] = target: T1, 17-beta-hydroxysteroid-dehydrogenase (Cochliobolus lunatus, UniProt O93874); assay: Inhibitory activity against 17 beta-hydroxysteroid dehydrogenase catalysed oxidation reaction
T1 sequence (O93874 whole entry): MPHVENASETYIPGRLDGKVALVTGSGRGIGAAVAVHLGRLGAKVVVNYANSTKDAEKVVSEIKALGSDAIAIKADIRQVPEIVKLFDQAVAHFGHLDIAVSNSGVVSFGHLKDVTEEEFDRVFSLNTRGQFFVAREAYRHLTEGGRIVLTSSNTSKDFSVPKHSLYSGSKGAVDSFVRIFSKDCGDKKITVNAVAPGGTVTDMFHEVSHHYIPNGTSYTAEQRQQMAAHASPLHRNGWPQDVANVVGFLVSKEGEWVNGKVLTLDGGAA

[2] = target: T1, 17-beta-hydroxysteroid-dehydrogenase; assay: Inhibitory activity against 17 beta-hydroxysteroid dehydrogenase catalysed reduction reaction
[3] = target: T1, 17-beta-hydroxysteroid-dehydrogenase; assay: Inhibitory activity against 17 beta-hydroxysteroid dehydrogenase catalysed reduction reaction; NI=no inhibition
[4] = target: T1, 17-beta-hydroxysteroid-dehydrogenase; assay: Inhibitory activity against 17 beta-hydroxysteroid dehydrogenase catalysed oxidation reaction; NI=no inhibition

SMILES	IC50 [1] [µM]	IC50 ([2]; read-out: IC50) [µM]	IC50 [3]	IC50 [4]	IC50 [2]
O=C(OCc1ccccc1)c1cc2ccccc2oc1=O	2.7	8			
N#Cc1ccc(OC(=O)/C=C/c2ccccc2)cc1	13		Not Active		
O=C(/C=C/c1ccccc1)OCc1cccc(Oc2ccccc2)c1	130		Not Active		
COc1cc(COC(=O)/C=C/c2ccccc2)cc(OC)c1OC	14		Not Active		
O=C(/C=C/c1ccccc1)OCN1C(=O)c2ccccc2C1=O	10		Not Active		
COc1cccc(OC(=O)/C=C/c2ccccc2)c1	135				No inhibition
CCCCCCCC(=O)Nc1ccc(OC(=O)/C=C/c2ccccc2)cc1	> 200	> 200			
O=C(/C=C/c1ccccc1)OCCN1C(=O)c2ccccc2C1=O	5	90			
O=C(/C=C/c1ccccc1)Oc1ccccc1 [PHENYL CINNAMATE]	26	> 200			

The remaining lines, values ahead:

IC50 [1] [µM]	IC50 ([2]; read-out: IC50) [µM]	IC50 [3]	IC50 [4]	IC50 [2]	SMILES
> 200	> 200				CC(=O)Nc1ccc(OC(=O)/C=C/c2ccccc2)cc1
		Not Active	Not Active		COc1cc(COC(=O)c2cc3ccccc3oc2=O)cc(OC)c1OC
10					O=C(/C=C/c1ccccc1)Oc1cccc2ccccc12
		Not Active	Not Active		O=C(OCN1C(=O)c2ccccc2C1=O)c1cc2ccccc2oc1=O
		Not Active	Not Active		O=C(OCCN1C(=O)c2ccccc2C1=O)c1cc2ccccc2oc1=O
		Not Active	Not Active		O=C(/C=C/c1ccccc1)OC1CCCCC1
0.7	7				O=C(/C=C/c1ccccc1)OCc1ccccc1 [BENZYL CINNAMATE]
